Test results from patent publication US10946074B2, “GLP-1 derivatives and uses thereof” (Novo Nordisk A/S, priority 2016, dated 2021).
Read-outs that look alike come from different tables or passages of the source. Starred links: 1 amine or outer side, 2 acyl side, 3 side chain; linkers in the order of their positions; H or OH if unused. Residues, ends and D or L forms follow the SMILES beside them. Groups on a side chain read outwards from the residue. *: point of attachment. γGlu = O=C(O)[C@H](CCC(=O)[*:2])N[*:1]; C14 diacid = O=C(O)CCCCCCCCCCCCC(=O)*; AEEA = NCCOCCOCC(=O)O

Tests used:
DPP-IV = molecular target: T1, DPP-IV (Homo sapiens, UniProt P27487); assay: In vitro DPP-IV stability (incubation with DPP-IV, LC-MS of non-degraded peptide); type: in vitro ADME; conditions: 10 μM peptide, DPP-IV 2 μg/ml, 37° C., samples up to 180 min
T1 construct: purchased R & D systems
T1 sequence (P27487 whole entry, species assumed): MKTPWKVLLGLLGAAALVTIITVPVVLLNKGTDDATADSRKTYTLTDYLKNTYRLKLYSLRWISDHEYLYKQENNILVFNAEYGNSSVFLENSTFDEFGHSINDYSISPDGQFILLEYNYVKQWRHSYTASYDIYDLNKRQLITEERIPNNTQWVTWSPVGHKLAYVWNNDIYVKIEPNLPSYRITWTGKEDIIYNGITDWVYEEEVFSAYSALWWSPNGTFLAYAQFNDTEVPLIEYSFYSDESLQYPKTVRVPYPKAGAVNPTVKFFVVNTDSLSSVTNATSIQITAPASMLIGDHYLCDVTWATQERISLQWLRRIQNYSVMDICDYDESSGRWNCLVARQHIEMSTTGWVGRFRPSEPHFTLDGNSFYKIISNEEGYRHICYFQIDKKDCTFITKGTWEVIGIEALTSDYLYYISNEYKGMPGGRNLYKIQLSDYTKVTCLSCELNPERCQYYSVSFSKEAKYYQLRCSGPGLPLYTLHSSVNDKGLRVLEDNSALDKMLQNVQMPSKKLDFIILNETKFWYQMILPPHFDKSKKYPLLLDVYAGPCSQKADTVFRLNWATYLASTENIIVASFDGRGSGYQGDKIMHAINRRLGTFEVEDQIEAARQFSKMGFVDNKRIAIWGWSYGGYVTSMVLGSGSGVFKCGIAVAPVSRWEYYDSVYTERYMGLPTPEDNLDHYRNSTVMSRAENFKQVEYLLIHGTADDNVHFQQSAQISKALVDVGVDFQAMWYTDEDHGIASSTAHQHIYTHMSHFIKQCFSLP
Procedure: The peptides are incubated in vitro in buffer with DPP-IV, samples are taken at regular intervals, the DPP-IV enzyme is inactivated to stop further degradation, and the amount of non-degraded peptide in the samples is determined using LC-MS.
Buffer A is a HEPES buffer (Gibco by Life Science, NY, USA) to which 0.005% (v/v) Tween20® Sigma-Aldrich, USA) and 0.001% (w/v) BSA (Sigma-Aldrich, USA) has been added and pH was adjusted to 7.4.
LC-MS was performed on a setup consisting of Waters Acquity UPLC system and Maxis 4G from Bruker Daltonics. […] Gradient: Linear 5%-70% mobile phase B during 8 min at 0.3 ml/min. MS was conducted in positive ionisation mode by electrospray ionisation from m/z ionisation mode and scan from m/z 300-1800.
The reactions were terminated by addition of 6 volumes of ethanol containing 1% (v/v) TFA (Biosolve BV, The Netherlands) and internal standard. The samples were analysed by LC-MS for the respective non-degraded peptide. Data was plotted according to 1st order kinetics (by GraphPad Prism) and the half-lives (T1/2) were calculated by the software and reported in minutes.

human GLP-1 receptor [1] = molecular target: T2, human GLP-1 receptor (Homo sapiens, UniProt P43220); assay: In vitro potency, CRE luciferase reporter gene assay in BHK cells expressing the human GLP-1 receptor; type: cell-based; conditions: 3 h, 0% HSA, average of at least three replicates
T2 construct: expressed in transfected cells; host or cells: membranes of BHK cells (parent BHKTS13), clone FCW467-12A
T2 sequence (P43220 24-463): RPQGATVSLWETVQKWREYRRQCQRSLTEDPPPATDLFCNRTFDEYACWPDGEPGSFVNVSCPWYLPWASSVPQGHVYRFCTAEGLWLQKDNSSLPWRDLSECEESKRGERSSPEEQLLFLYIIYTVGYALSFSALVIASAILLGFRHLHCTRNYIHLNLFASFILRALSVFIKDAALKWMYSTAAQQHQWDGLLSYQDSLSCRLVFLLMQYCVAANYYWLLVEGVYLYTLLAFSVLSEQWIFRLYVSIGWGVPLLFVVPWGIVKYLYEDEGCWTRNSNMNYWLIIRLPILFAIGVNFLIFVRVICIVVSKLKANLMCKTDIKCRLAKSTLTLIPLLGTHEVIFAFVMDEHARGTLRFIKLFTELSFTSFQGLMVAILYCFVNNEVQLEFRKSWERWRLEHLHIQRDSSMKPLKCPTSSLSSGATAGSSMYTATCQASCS
Procedure: When assay incubation is completed the luciferase substrate (luciferin) is added and the enzyme converts luciferin to oxyluciferin to produce bioluminescence. The luminescence is measured as the readout for the assay.
The cells were cultured at 5% CO2 in cell culture medium. They were aliquoted and stored in liquid nitrogen. Before each assay an aliquot was taken up and washed twice in PBS before being suspended at the desired concentration in the assay specific buffer. For 96-well plates the suspension was made to give a final concentration of 5×10^3 cells/well.
Assay medium consisted of DMEM w/o phenol red, 10 mM Hepes and 1× Glutamax. The assay buffer consisted of 2% w/v ovalbumin and 0.2% v/v Pluronic F-68 in assay medium.
3) Cells were counted and adjusted to 5×10^3 cells/50 μl (1×10^5 cells/ml) in assay medium. A 50 μl aliquot of cells was transferred to each well in the assay plate.
4) Stocks of the test compounds and reference compounds were diluted to a concentration of 0.2 μM in assay buffer. […] Compounds were tested at the following final concentrations: 1×10^−7 M, 1×10^−8 M; 1×10^−9 M, 1×10^−10 M, 1×10^−11 M, 1×10^−12 M, 1×10^−13 M, and 1×10^−14 M. 6) The assay plate was incubated for 3 h in a 5% CO2 incubator at 37° C. […] 8) A 100 μl aliquot of steadylite plus reagent was added to each well of the assay plate. 9) Each assay plate was covered with aluminum foil to protect it from light and shaken for 30 min at room temperature. 10) Each assay plate was read in a BioTek Synergy 2 Multi-Mode Reader. Calculations and Results
The data from the BioTek Synergy 2 Multi-Mode Reader were transferred to GraphPad Prism software. The software performs a non-linear regression (log(agonist) vs. response (three parameters)).
A minimum of three replicates were measured for each sample. The reported EC50 values are averages of the measured values for each compound.

human GLP-1 receptor [2] = molecular target: T2, human GLP-1 receptor; assay: GLP-1 receptor binding, competitive binding assay with 125I-GLP-1 on isolated membranes (SPA)
Procedure: The receptor binding is reported as the concentration at which half of the labelled ligand is displaced from the receptor, the IC50 value.
Buffer 1 consisted of 20 mM Na-HEPES plus 10 mM EDTA and pH was adjusted to 7.4. Buffer 2 consisted of 20 mM Na-HEPES plus 0.1 mM EDTA and pH was adjusted to 7.4. Assay buffer consisted of 50 mM HEPES supplemented with 5 mM EGTA, 5 mM MgCl2, 0.005% w/v Tween 20 and pH was adjusted to 7.4. An 8% albumin stock consisted of HSA dissolved at 8% (w/v) in assay buffer. An 0.02% albumin stock consisted of HSA dissolved at 0.02% (w/v) in assay buffer.
To make a membrane preparation the cells were grown to approximately 80% confluence. The cells were washed twice in phosphate-buffered saline and harvested. The cells were pelleted using a brief centrifugation and the cell pellet was kept on ice. The cell pellet was homogenised with ULTRA-THURRAX™ dispersing instrument for 20-30 seconds in a suitable amount of buffer 1 (e.g., 10 ml). The homogenate was centrifuged for 15 minutes. The pellet was re-suspended (homogenised) in 10 ml buffer 2 and centrifuged. This step was repeated once more. The resulting pellet was re-suspended in buffer 2 and the protein concentration was determined. The membranes were aliquoted and stored at minus 80° C.
For the receptor binding assay in the presence of low HSA (0.005% (w/v)) 50 μl of the assay buffer was added to each well of an assay plate. Assay continued with step 3.
For the receptor binding assay in the presence of high HSA (2% (w/v)) 50 μl of the 8% (w/v) albumin stock was added to each well of an assay plate. Assay continued with step 3.
Cell membrane aliquots were thawed and diluted to their working concentration. Fifty μl were added to each well in the assay plate.
WGA SPA beads were suspended in assay buffer at 20 mg/ml. The suspension was diluted to 10 mg/ml in assay buffer just prior to addition to the assay plate. Fifty μl were added to each well in the assay plate.
A 25 μl aliquot was reserved for measuring total counts/well.
The assay plate was incubated for 2 h at 30° C.
The assay plate was centrifuged for 10 min.
The assay plate was read in a Packard TopCount NXT instrument.
Individual replicates were analysed using non-linear regression in GraphPad Prism. IC50 values were calculated by the software and reported in nM. A minimum of two replicates was measured for each sample. The reported values are averages of all of the measured values for each compound.

[3] = high HSA (2.0% (w/v) final assay concentration), read-out: GLP-1 receptor binding High HSA IC50
[4] = low HSA (max. 0.001% (w/v) final assay concentration), read-out: GLP-1 receptor binding Low HSA IC50

Row | Compound | degradation by DPP-IV in vitro (in words) (DPP-IV) | EC50 (human GLP-1 receptor [1]) [nM] | IC50 (human GLP-1 receptor [2]; [3]) [nM] | IC50 (human GLP-1 receptor [2]; [4]) [nM]
1 | CC[C@H](C)[C@H](NC(=O)[C@H](Cc1ccccc1)NC(=O)[C@H](CCC(=O)O)NC(=O)[C@H](CCCCN)NC(=O)[C@H](C)NC(=O)[C@H](C)NC(=O)[C@H](CCC(N)=O)NC(=O)CNC(=O)[C@H](CCC(=O)O)NC(=O)[C@H](CC(C)C)NC(=O)[C@H](Cc1ccc(O)cc1)NC(=O)[C@H](CO)NC(=O)[C@H](CO)NC(=O)[C@@H](NC(=O)[C@H](CC(=O)O)NC(=O)[C@H](CO)NC(=O)[C@@H](NC(=O)[C@H](Cc1ccccc1)NC(=O)[C@@H](NC(=O)CNC(=O)[C@H](CCC(=O)O)NC(=O)[C@H](Cc1c[nH]c2ccccc12)NC(=O)[C@@H](N)Cc1c[nH]cn1)[C@@H](C)O)[C@@H](C)O)C(C)C)C(=O)N[C@@H](C)C(=O)N[C@@H](Cc1c[nH]c2ccccc12)C(=O)N[C@@H](CC(C)C)C(=O)N[C@H](C(=O)N[C@@H](CCCCN)C(=O)NCC(=O)N[C@@H](CCCNC(=N)N)C(=O)NCC(=O)O)C(C)C [Example D, [Trp8]-GLP-1-(7-37)-Peptide] | no degradation at all was observed |  |  | 
2 | CC[C@H](C)[C@H](NC(=O)[C@H](Cc1ccccc1)NC(=O)[C@H](CCC(=O)O)NC(=O)[C@H](CCCNC(=N)N)NC(=O)[C@H](C)NC(=O)[C@H](C)NC(=O)[C@H](CCC(N)=O)NC(=O)[C@H](CCC(=O)O)NC(=O)[C@H](CCC(=O)O)NC(=O)[C@H](CC(C)C)NC(=O)[C@H](Cc1ccc(O)cc1)NC(=O)[C@H](CO)NC(=O)[C@H](CO)NC(=O)[C@@H](NC(=O)[C@H](CC(=O)O)NC(=O)[C@H](CO)NC(=O)[C@@H](NC(=O)[C@H](Cc1ccccc1)NC(=O)[C@@H](NC(=O)CNC(=O)[C@H](CCC(=O)O)NC(=O)[C@H](Cc1c[nH]c2ccccc12)NC(=O)[C@@H](N)Cc1c[nH]cn1)[C@@H](C)O)[C@@H](C)O)C(C)C)C(=O)N[C@@H](C)C(=O)N[C@@H](Cc1c[nH]c2ccccc12)C(=O)N[C@@H](CC(C)C)C(=O)N[C@H](C(=O)N[C@@H](CCCNC(=N)N)C(=O)NCC(=O)N[C@@H](CCCCNC(=O)COCCOCCNC(=O)COCCOCCNC(=O)COCCOCCNC(=O)COCCOCCNC(=O)CC[C@H](NC(=O)CCCCCCCCCCCCC(=O)O)C(=O)O)C(=O)N[C@@H](CCCCNC(=O)COCCOCCNC(=O)COCCOCCNC(=O)COCCOCCNC(=O)COCCOCCNC(=O)CC[C@H](NC(=O)CCCCCCCCCCCCC(=O)O)C(=O)O)C(=O)O)C(C)C [Example 7] (H-HWEGTFTSDVSSYLEEQAAREFIAWLVRGK([AEEA-AEEA-AEEA-AEEA-γGlu-C14 diacid])K([AEEA-AEEA-AEEA-AEEA-γGlu-C14 diacid])-OH; N-terminus and C-terminus assumed) |  | 0.0056 | 71 | 
3 | CC[C@H](C)[C@H](NC(=O)[C@H](Cc1ccccc1)NC(=O)[C@H](CCC(=O)O)NC(=O)[C@H](CCCNC(=N)N)NC(=O)[C@H](C)NC(=O)[C@H](C)NC(=O)[C@H](CCC(N)=O)NC(=O)[C@H](CCC(=O)O)NC(=O)[C@H](CCC(=O)O)NC(=O)[C@H](CC(C)C)NC(=O)[C@H](Cc1ccc(O)cc1)NC(=O)[C@H](CO)NC(=O)[C@H](CO)NC(=O)[C@@H](NC(=O)[C@H](CC(=O)O)NC(=O)[C@H](CO)NC(=O)[C@@H](NC(=O)[C@H](Cc1ccccc1)NC(=O)[C@@H](NC(=O)CNC(=O)[C@H](CCC(=O)O)NC(=O)C(C)(C)NC(=O)[C@@H](N)Cc1c[nH]cn1)[C@@H](C)O)[C@@H](C)O)C(C)C)C(=O)N[C@@H](C)C(=O)N[C@@H](Cc1c[nH]c2ccccc12)C(=O)N[C@@H](CC(C)C)C(=O)N[C@H](C(=O)N[C@@H](CCCNC(=N)N)C(=O)NCC(=O)N[C@@H](CCCCNC(=O)COCCOCCNC(=O)COCCOCCNC(=O)CC[C@H](NC(=O)CCCCCCCCCOc1cccc(C(=O)O)c1)C(=O)O)C(=O)N[C@@H](CCCCNC(=O)COCCOCCNC(=O)COCCOCCNC(=O)CC[C@H](NC(=O)CCCCCCCCCOc1cccc(C(=O)O)c1)C(=O)O)C(=O)O)C(C)C [Comparative 1A] |  | 0.0081 | 116 | 0.318

Other lines, results leading:

Row | degradation by DPP-IV in vitro (in words) (DPP-IV) | EC50 (human GLP-1 receptor [1]) [nM] | IC50 (human GLP-1 receptor [2]; [3]) [nM] | IC50 (human GLP-1 receptor [2]; [4]) [nM] | Compound
4 |  | 0.0026 | 31.5 | 0.744 | CC[C@H](C)[C@H](NC(=O)[C@H](Cc1ccccc1)NC(=O)[C@H](CCC(=O)O)NC(=O)[C@H](CCCNC(=N)N)NC(=O)[C@H](C)NC(=O)[C@H](C)NC(=O)[C@H](CCC(N)=O)NC(=O)[C@H](CCC(=O)O)NC(=O)[C@H](CCC(=O)O)NC(=O)[C@H](CC(C)C)NC(=O)[C@H](Cc1ccc(O)cc1)NC(=O)[C@H](CO)NC(=O)[C@H](CO)NC(=O)[C@@H](NC(=O)[C@H](CC(=O)O)NC(=O)[C@H](CO)NC(=O)[C@@H](NC(=O)[C@H](Cc1ccccc1)NC(=O)[C@@H](NC(=O)CNC(=O)[C@H](CCC(=O)O)NC(=O)C(C)(C)NC(=O)[C@@H](N)Cc1c[nH]cn1)[C@@H](C)O)[C@@H](C)O)C(C)C)C(=O)N[C@@H](C)C(=O)N[C@@H](Cc1c[nH]c2ccccc12)C(=O)N[C@@H](CC(C)C)C(=O)N[C@H](C(=O)N[C@@H](CCCNC(=N)N)C(=O)NCC(=O)N[C@@H](CCCCNC(=O)COCCOCCNC(=O)COCCOCCNC(=O)COCCOCCNC(=O)COCCOCCNC(=O)CC[C@H](NC(=O)CCCCCCCCCCCCC(=O)O)C(=O)O)C(=O)N[C@@H](CCCCNC(=O)COCCOCCNC(=O)COCCOCCNC(=O)COCCOCCNC(=O)COCCOCCNC(=O)CC[C@H](NC(=O)CCCCCCCCCCCCC(=O)O)C(=O)O)C(=O)O)C(C)C [Comparative 7A]
5 |  | 0.0168 | 108 | 0.591 | CC[C@H](C)[C@H](NC(=O)[C@H](Cc1ccccc1)NC(=O)[C@H](CCC(=O)O)NC(=O)[C@H](CCCNC(=N)N)NC(=O)[C@H](C)NC(=O)[C@H](C)NC(=O)[C@H](CCC(N)=O)NC(=O)[C@H](CCC(=O)O)NC(=O)[C@H](CCC(=O)O)NC(=O)[C@H](CC(C)C)NC(=O)[C@H](Cc1ccc(O)cc1)NC(=O)[C@H](CO)NC(=O)[C@H](CO)NC(=O)[C@@H](NC(=O)[C@H](CC(=O)O)NC(=O)[C@H](CO)NC(=O)[C@@H](NC(=O)[C@H](Cc1ccccc1)NC(=O)[C@@H](NC(=O)CNC(=O)[C@H](CCC(=O)O)NC(=O)C(C)(C)NC(=O)[C@@H](N)Cc1c[nH]cn1)[C@@H](C)O)[C@@H](C)O)C(C)C)C(=O)N[C@@H](C)C(=O)N[C@@H](Cc1c[nH]c2ccccc12)C(=O)N[C@@H](CC(C)C)C(=O)N[C@H](C(=O)N[C@@H](CCCNC(=N)N)C(=O)NCC(=O)N[C@@H](CCCNC(=N)N)C(=O)N[C@@H](CCCCNC(=O)[C@H](CCCCNC(=O)COCCOCCNC(=O)COCCOCCNC(=O)COCCOCCNC(=O)COCCOCCNC(=O)COCCOCCNC(=O)COCCOCCNC(=O)CC[C@H](NC(=O)[C@H]1CC[C@H](CNC(=O)CCCCCCCCCCCCCCCCCCC(=O)O)CC1)C(=O)O)NC(=O)COCCOCCNC(=O)COCCOCCNC(=O)COCCOCCNC(=O)COCCOCCNC(=O)COCCOCCNC(=O)COCCOCCNC(=O)CC[C@H](NC(=O)[C@H]1CC[C@H](CNC(=O)CCCCCCCCCCCCCCCCCCC(=O)O)CC1)C(=O)O)C(=O)O)C(C)C [Comparative 10A]
